Assay results taken from US20230114753A1, “USE OF A GROUP OF MARKERS FOR DIAGNOSING AND ADJUSTING TREATMENT OF PRIMARY BILIARY CHOLANGITIS, PHARMACEUTICAL COMPOSITION AND SOLID DOSAGE FORM FOR TREATING PRIMARY BILIARY CHOLANGITIS” (MILI HEALTHCARE TRADE DMCC, LIMITED LIABILITY COMPANY, priority 2020, published 2023).
Where “and” joins values, the source holds several entries; their conditions need not be identical. Identical values can stand only once. Like-named read-outs stand apart in the source and are kept apart here.

What was measured:
[1] = Pharmacokinetics of obeticholic acid taken orally, in a monocomposition or with UDCA; type: in vivo
Description: A study of the pharmacokinetics of obeticholic acid in a monocom position and as part of a composition with ursodeoxycholic acid when taken orally was conducted.

patients with PBC = experiment: Effectiveness of the PBC treatment using various regimens (positive response, Paris2 system, 12 months); type: in vivo, human; conditions: Paris2 criteria
Description: A double-blind clinical study on the effectiveness of the combined pharmaceutical composition comprising UDCA and OCA compared to UDCA was conducted.
To study the effectiveness, the tablet embodiments No. 15 and No. 16 were used.
A study on the effectiveness of the various treatment regimens for the patients with PBC was conducted. A total of three treatment regimens were used in the study: • 1) UDCA monocomposition at a dose of 15 mg/kg/day. • 2) Combined pharmaceutical composition in the pharmaceutical form with the modified release and at a dose of UDCA 15 mg/kg+OCA 5 mg per day. • 3) Combined pharmaceutical composition in the pharmaceutical form with the modified release and at a dose of UDCA 15 mg/kg+OCA 10 mg per day.
The studies were carried out for 12 months, during which the quality of the treatment was assessed by measuring biochemical and molecular biological markers (see above).
The evaluation of the effectiveness of the treatment was carried out on the basis of the Paris2 system, according to which the criteria for a satisfactory treatment are: • ALT level≤3-fold upper limit of normal (ULN); • AST level≤2-fold ULN; • normal bilirubin level.

[2] = system: patients diagnosed with PBC; experiment: Double-blind clinical study: biochemical and molecular markers in blood of PBC patients treated with UDCA or UDCA+OCA; type: in vivo, human; conditions: blood plasma
Description: To determine the concentration level values of the markers in the blood serum, chemiluminescence and enzyme immunoassay methods were used.
A double-blind clinical study was conducted on the effectiveness of the combined pharmaceutical composition comprising UDCA and OCA compared with the monocomposition comprising only UDCA for the patients with the following concentration level values of the claimed group of the markers (corresponding to 1 Stage of PBC): • IL-6—at least 10%; • Nf-kB—at least 5%; • MCP-1/CCL2—at least 5%; • Bcl-2—at least 5%; • TNF-α—at least 12%; • MDA—at least 0.5%.
The patients diagnosed with PBC were divided into 3 groups depending on the treatment regimen:
2) Group UDCA 15 mg/kg+OCA 5 mg;
3) Group UDCA 15 mg/kg+OCA 10 mg.
After the treatment, venous blood samples were taken from the patients and the concentrations of biochemical and molecular markers were determined.
As markers of the treatment effectiveness, two groups of markers were used: biochemical and molecular biological.
The first group included: ALT, AST, GGT (Gamma-glutamyl Transferase), AP and total bilirubin.
The second group included: TNF-α, IL-6, Nf-kB, MCP-1/CCL2, BCL-2, and MDA.

[3] = month 6 of treatment, listed as UDCA 15 mg/kg
[4] = month 12 of treatment, listed as UDCA 15 mg/kg

Compound: CC[C@H]1[C@@H](O)[C@@H]2[C@H](CC[C@]3(C)[C@@H]([C@H](C)CCC(=O)O)CC[C@@H]23)[C@@]2(C)CC[C@@H](O)C[C@@H]12 [OCA, obeticholic acid]
- AUC(0-t) ([1]; in vivo, po): 34.8 ng·h/mL
- bioavailability ([1]; in vivo, po, read-out: Bioavailability): 89%
- Cmax ([1]; in vivo, po, read-out: Cmax): 16.7 ng/mL
- Tmax ([1]; listed as OCA 5 mg): 0.667 h
- AUCt ([1]; listed as OCA 10 mg): 66.1 ng·h/mL
- Cmax ([1]; listed as OCA 10 mg): 26.4 ng/mL
- Tmax ([1]; listed as OCA 10 mg): 1.5 h
- bioavailability ([1]; listed as OCA 10 mg): 91%

Compound: C[C@H](CCC(=O)O)[C@H]1CC[C@H]2[C@@H]3[C@@H](O)C[C@@H]4C[C@H](O)CC[C@]4(C)[C@H]3CC[C@]12C [UDCA, ursodeoxycholic acid]
- Number of patients with positive response to treatment (%) (patients with PBC): 58.82%
- Number of patients with positive response to treatment (number) (patients with PBC; groups of 68, 65, 63 patients): 40
- ALT ([2]; month 1 of treatment): 80.4 U/l
- ALT, in % of the initial value ([2]; month 1 of treatment): 97.22%
- AP ([2]; month 1 of treatment): 352.5 U/l
- AP, in % of the initial value ([2]; month 1 of treatment): 97.20%
- AST ([2]; month 1 of treatment): 100.7 U/l
- AST, in % of the initial value ([2]; month 1 of treatment): 95.72%
- Bcl-2 ([2]; month 1 of treatment): 0.68 U/ml
- Bcl-2, in % of the initial value ([2]; month 1 of treatment): 94.44%
- GGT ([2]; month 1 of treatment): 198 U/l
- GGT, in % of the initial value ([2]; month 1 of treatment): 95.42%
- IL-6 ([2]; month 1 of treatment): 23.35 pg/mL
- IL-6, in % of the initial value ([2]; month 1 of treatment): 99.19%
- MCP-1/CCL2 ([2]; month 1 of treatment): 465.4 pg/mL
- MCP-1/CCL2, in % of the initial value ([2]; month 1 of treatment): 99.34%
- MDA ([2]; month 1 of treatment): 22.87 nmol/mL
- MDA, in % of the initial value ([2]; month 1 of treatment): 99.09%
- Nf-kB ([2]; month 1 of treatment): 64.4 pg/mL
- Nf-kB, in % of the initial value ([2]; month 1 of treatment): 98.32%
- TNF-α ([2]; month 1 of treatment): 0.33 ng/mL
- TNF-α, in % of the initial value ([2]; month 1 of treatment): 100.00%
- Total bilirubin ([2]; month 1 of treatment): 39.8 µmol/L
- Total bilirubin, in % of the initial value ([2]; month 1 of treatment): 96.18%
- ALT ([2]; month 3 of treatment): 74.81 U/l
- ALT, in % of the initial value ([2]; month 3 of treatment): 90.46%
- AP ([2]; month 3 of treatment): 290.6 U/l
- AP, in % of the initial value ([2]; month 3 of treatment): 88.10%
- AST ([2]; month 3 of treatment): 87.3 U/l
- AST, in % of the initial value ([2]; month 3 of treatment): 82.98%
- Bcl-2 ([2]; month 3 of treatment): 0.62 U/ml
- Bcl-2, in % of the initial value ([2]; month 3 of treatment): 86.11%
- GGT ([2]; month 3 of treatment): 178.8 U/l
- GGT, in % of the initial value ([2]; month 3 of treatment): 86.17%
- IL-6 ([2]; month 3 of treatment): 22.95 pg/mL
- IL-6, in % of the initial value ([2]; month 3 of treatment): 97.49%
- MCP-1/CCL2 ([2]; month 3 of treatment): 448 pg/mL
- MCP-1/CCL2, in % of the initial value ([2]; month 3 of treatment): 95.62%
- MDA ([2]; month 3 of treatment): 22.54 nmol/mL
- MDA, in % of the initial value ([2]; month 3 of treatment): 97.66%
- Nf-kB ([2]; month 3 of treatment): 64.1 pg/mL
- Nf-kB, in % of the initial value ([2]; month 3 of treatment): 97.86%
- TNF-α ([2]; month 3 of treatment): 0.324 ng/mL
- TNF-α, in % of the initial value ([2]; month 3 of treatment): 98.18%
- Total bilirubin ([2]; month 3 of treatment): 33.8 µmol/L
- Total bilirubin, in % of the initial value ([2]; month 3 of treatment): 87.50%
- ALT, in % of the initial value [2, 3]: 67.32% and 82.47%
- AP, in % of the initial value [2, 3]: 63.93% and 74.45%
- AST, in % of the initial value [2, 3]: 67.24% and 77.38%
- Bcl-2, in % of the initial value [2, 3]: 95.24% and 80.56%
- GGT, in % of the initial value [2, 3]: 65.16% and 75.28%
- IL-6, in % of the initial value [2, 3]: 85.81% and 93.46%
- MCP-1/CCL2, in % of the initial value [2, 3]: 88.00% and 92.08%
- MDA, in % of the initial value [2, 3]: 95.36% and 96.92%
- Nf-kB, in % of the initial value [2, 3]: 91.91% and 95.88%
- TNF-α, in % of the initial value [2, 3]: 87.88% and 95.45%
- ALT ([2]; month 9 of treatment): 62.47 U/l
- ALT, in % of the initial value ([2]; month 9 of treatment): 75.54%
- AP ([2]; month 9 of treatment): 247.5 U/l
- AP, in % of the initial value ([2]; month 9 of treatment): 69.18%
- AST ([2]; month 9 of treatment): 74.5 U/l
- AST, in % of the initial value ([2]; month 9 of treatment): 70.82%
- Bcl-2 ([2]; month 9 of treatment): 0.54 U/ml
- Bcl-2, in % of the initial value ([2]; month 9 of treatment): 75.00%
- GGT ([2]; month 9 of treatment): 141.5 U/l
- GGT, in % of the initial value ([2]; month 9 of treatment): 68.19%
- IL-6 ([2]; month 9 of treatment): 21.48 pg/mL
- IL-6, in % of the initial value ([2]; month 9 of treatment): 91.25%
- MCP-1/CCL2 ([2]; month 9 of treatment): 419.7 pg/mL
- MCP-1/CCL2, in % of the initial value ([2]; month 9 of treatment): 89.58%
- MDA ([2]; month 9 of treatment): 22.12 nmol/mL
- MDA, in % of the initial value ([2]; month 9 of treatment): 95.84%
- Nf-kB ([2]; month 9 of treatment): 61.4 pg/mL
- Nf-kB, in % of the initial value ([2]; month 9 of treatment): 93.74%
- TNF-α ([2]; month 9 of treatment): 0.3 ng/mL
- TNF-α, in % of the initial value ([2]; month 9 of treatment): 90.91%
- Total bilirubin ([2]; month 9 of treatment): 28.03 µmol/L
- Total bilirubin, in % of the initial value ([2]; month 9 of treatment): 70.49%
- ALT ([2]; month 12 of treatment): 55.67 U/l
- ALT, in % of the initial value ([2]; month 12 of treatment): 67.32%
- AP ([2]; month 12 of treatment): 235.36 U/l
- AP, in % of the initial value ([2]; month 12 of treatment): 63.93%
- AST ([2]; month 12 of treatment): 70.73 U/l
- Bcl-2 ([2]; month 12 of treatment): 0.52 U/ml
- GGT ([2]; month 12 of treatment): 135.2 U/l
- GGT, in % of the initial value ([2]; month 12 of treatment): 65.16%
- IL-6 ([2]; month 12 of treatment): 20.2 pg/mL
- IL-6, in % of the initial value ([2]; month 12 of treatment): 85.81%
- MCP-1/CCL2 ([2]; month 12 of treatment): 412.3 pg/mL
- MCP-1/CCL2, in % of the initial value ([2]; month 12 of treatment): 88.00%
- MDA ([2]; month 12 of treatment): 22.01 nmol/mL
- MDA, in % of the initial value ([2]; month 12 of treatment): 95.36%
- Nf-kB ([2]; month 12 of treatment): 60.2 pg/mL
- Nf-kB, in % of the initial value ([2]; month 12 of treatment): 91.91%
- TNF-α ([2]; month 12 of treatment): 0.29 ng/mL
- TNF-α, in % of the initial value ([2]; month 12 of treatment): 87.88%
- Total bilirubin ([2]; month 12 of treatment): 26.03 µmol/L
- Total bilirubin, in % of the initial value ([2]; month 12 of treatment): 64.58%
- AST, in % of the initial value [2, 4]: 67.24% and 67.23%
- Bcl-2, in % of the initial value [2, 4]: 72% and 72.22%
